# Where two headings read alike, the source gives them in different places.
# System: TNFα
# Test: IRAK4 Monocyte TNFα Cell Based Assay
# Set-up: species or system human
# Conditions: human monocytes, second part of Table 2, compounds 33-343, unit inferred, read-out: EC50 MONO TNF HTRF
# Description: IRAK4 Monocyte TNFα Cell Based Assay Procedure:
# The cell suspension was then plated at a density of 5,000 cells/well onto black 384 well Greiner clear bottom plates. Plates were pre-spotted with test compounds and serially diluted in DMSO where 40 nL/well were delivered using the Echo 550 acoustic liquid dispenser (Labcyte®) for a final DMSO concentration of 0.1%. Plated cells were treated with compound for 1 hour at 37° C. Cells were then stimulated with 50 pg/ml of LPS (Sigma) excluding outside columns of plate used for unstimulated cell control wells. Cells were incubated for an additional 4 hours at 37° C. Cells were then spun out of the media and 5 μl of sample were taken and analyzed for total TNFα content using the TR-FRET Human TNFα detection system (CisBio). This system utilizes two labeled antibodies (cryptate and XL665) that bind to two different epitopes of the TNFα molecule and produce FRET signal proportional to the concentration of TNFα in the sample. Detection antibodies are mixed 50:50 and 5 μL were dispensed into each well. Plates were covered with clear seals and incubated at room temp overnight. […] Percent of control was calculated as follows: % Control=100×(Ratiosample−Ratio0% stimulation)/(Ratio100% Stimulation−Ratio0% Stimulation) where unstimulated cells (0% stimulation) were the negative control and stimulated cells (100% stimulation) were used as the positive control.
Compound,EC50,"EC50 (Homo sapiens, Monocyte)"
"COC(=O)NC[C@H]1C[C@H](Nc2cc(-c3ccc4cc(C#N)cnn34)ncc2-c2nnc(N3CCN4CCOC[C@H]4C3)s2)C1 [Example 51, methyl (((1R,3r)-3-((2-(3-cyanopyrrolo[1,2-b]pyridazin-7-yl)-5-(5-((R)-hexahydropyrazino[2,1-c][1,4]oxazin-8(1H)-yl)-1,3,4-thiadiazol-2-yl)pyridin-4-yl)amino)cyclobutyl)methyl)carbamate]",4.7 nM,
"CC(=O)NC1CCN(c2nnc(-c3cnc(-c4ccc5cc(C#N)cnn45)cc3NC(C)C)s2)C[C@@H]1O (stereo in doubt) [Example 64, N-((3S,4R)-1-(5-(6-(3-cyanopyrrolo[1,2-b]pyridazin-7-yl)-4-(isopropylamino)pyridin-3-yl)-1,3,4-thiadiazol-2-yl)-3-hydroxypiperidin-4-yl)acetamide]",,6.9 nM
"COC(=O)N1CCN(C(=O)N[C@@H]2[C@@H]3CC[C@H]2CN(c2nnc(-c4cnc(-c5ccc6cc(C#N)cnn56)cc4NC(C)C)s2)C3)CC1 [Example 105, methyl 4-(((1R,5S,8s)-3-(5-(6-(3-cyanopyrrolo[1,2-b]pyridazin-7-yl)-4-(isopropylamino)pyridin-3-yl)-1,3,4-thiadiazol-2-yl)-3-azabicyclo[3.2.1]octan-8-yl)carbamoyl)piperazine-1-carboxylate]",4.2 nM,
CC(=O)NC1CCC2(CC1)CN(c1nnc(-c3cnc(-c4ccc5cc(C#N)cnn45)cc3NC3(C)COC3)s1)C2 [Example 99],5.8 nM,
"CC(=O)N[C@@H]1C[C@H]2C[C@@H]1CN2c1nnc(-c2cnc(-c3ccc4cc(C#N)cnn34)cc2NC(C)C)s1 [Example 73, N-((1R,4R,5R)-2-(5-(6-(3-cyanopyrrolo[1,2-]pyridazin-7-yl)-4-(isopropylamino)pyridin-3-yl)-1,3,4-thiadiazol-2-yl)-2-azabicyclo[2.2.1]heptan-5-yl)acetamide]",64.1 nM,
CC(=O)N[C@@H]1CN(c2nnc(-c3cnc(-c4ccc5cc(C#N)cnn45)cc3NC(C)C)s2)CC12CC2 [Compound 324],19.1 nM,
"CC(=O)N1CCC2(CC1)CN(c1nnc(-c3cnc(-c4ccc5cc(C#N)cnn45)cc3NC3COC3)s1)C2 [Example 75, 7-(5-(5-(7-acetyl-2,7-diazaspiro[3.5]nonan-2-yl)-1,3,4-hiadiazol-2-yl)-4-(oxetan-3-ylamino)pyridin-2-yl)pyrrolo[1,2-b]pyridazine-3-carbonitrile]",3.2 nM,
CC(C)Nc1cc(-c2ccc3cc(C#N)cnn23)ncc1-c1nnc(N2CC(N3CCC(F)(F)C3)C2)s1 [Compound 328],80.5 nM,
"COC(=O)N[C@H]1CC[C@H](Nc2cc(-c3ccc4cc(C#N)cnn34)ncc2-c2nnc(N3C[C@H]4CC[C@@H](C3)[C@@H]4NC(C)=O)s2)CC1 [Example 54, methyl ((1R,4r)-4-((5-(5-((1R,5S,8S)-8-acetamido-3-azabicyclo[3.2.1]octan-3-yl)-1,3,4-thiadiazol-2-yl)-2-(3-cyanopyrrolo[1,2-b]pyridazin-7-yl)pyridin-4-yl)amino)cyclohexyl)carbamate]",2.4 nM,
"COC(=O)N[C@H]1CC[C@H](Nc2cc(-c3ccc4cc(C#N)cnn34)ncc2-c2nnc([C@H]3CC[C@H](NC(C)=O)CC3)s2)CC1 [Example 34, methyl ((1R,4r)-4-((5-(5-((1r,4R)-4-acetamidocyclohexyl)-1,3,4-thiadiazol-2-yl)-2-(3-cyanopyrrolo[1,2-b]pyridazin-7-yl)pyridin-4-yl)amino)cyclohexyl)carbamate]",4.9 nM,
CC(C)Nc1cc(-c2ccc3cc(C#N)cnn23)ncc1-c1nnc([C@H]2CC[C@H](NC(=O)C3CCN(C)CC3)CC2)s1 [Compound 340],9.1 nM,
"CC(=O)N[C@H]1[C@@H]2CN(c3nnc(-c4cnc(-c5ccc6cc(C#N)cnn56)cc4NC(C)C)s3)C[C@@H]21 [Compound 240, N-((1R,5S,6s)-3-(5-(6-(3-cyanopyrrolo[1,2-b]pyridazin-7-yl)-4-(isopropylamino)pyridin-3-yl)-1,3,4-thiadiazol-2-yl)-3-azabicyclo[3.1.0]hexan-6-yl)acetamide]",8.9 nM,
CC(C)Nc1cc(-c2ccc3cc(C#N)cnn23)ncc1-c1nnc(N2CCC[C@H]2CO)s1 [Compound 329],54.2 nM,
"CC(=O)N[C@H]1CC[C@H](c2nnc(-c3cnc(-c4ccc5cc(C#N)cnn45)cc3NC3(C)CCOCC3)s2)CC1 [Compound 268, N-((1r,4r)-4-(5-(6-(3-cyanopyrrolo[1,2-b]pyridazin-7-yl)-4-((4-methyltetrahydro-2H-pyran-4-yl)amino)pyridin-3-yl)-1,3,4-thiadiazol-2-yl)cyclohexyl)acetamide]",14.1 nM,
"CC(C)Nc1cc(-c2ccc3cc(C#N)cnn23)ncc1-c1nnc(N2C[C@H]3CC[C@@H](C2)[C@@H]3NC(=O)[C@H]2C[C@@](C)(O)C2)s1 [Example 93, (1s,3S)-N-((1R,5S,8s)-3-(5-(6-(3-cyanopyrrolo[1,2-b]pyridazin-7-yl)-4-(isopropylamino)pyridin-3-yl)-1,3,4-thiadiazol-2-yl)-3-azabicyclo[3.2.1]octan-8-yl)-3-hydroxy-3-methylcyclobutane-1-carboxamide]",5.9 nM,
"COC(=O)N[C@@H]1[C@@H]2CC[C@H]1CN(c1nnc(-c3cnc(-c4ccc5cc(C#N)cnn45)cc3NC(C)C)s1)C2 [Example 59, methyl ((1R,5S,8s)-3-(5-(6-(3-cyanopyrrolo[1,2-b]pyridazin-7-yl)-4-(isopropylamino)pyridin-3-yl)-1,3,4-thiadiazol-2-yl)-3-azabicyclo[3.2.1]octan-8-yl)carbamate]",14.7 nM,

# Second part, the compound after the results:
EC50,"EC50 (Homo sapiens, Monocyte)",Compound
11.1 nM,,CC(C)Nc1cc(-c2ccc3cc(C#N)cnn23)ncc1-c1nnc(N2CC3CC(C2)N3C(=O)C2CCN(C)CC2)s1 [Example 117]
102 nM,,CCOC(=O)Cc1nnc(-c2cnc(-c3ccc4cc(C#N)cnn34)cc2NC(C)C)s1 [Example 318]
10.9 nM,,"N#Cc1cnn2c(-c3cc(NC4CCOCC4)c(-c4nnc([C@H]5CC[C@H](NC(=O)C6CC6)CC5)s4)cn3)ccc2c1 [Example 156, N-((1r,4r)-4-(5-(6-(3-cyanopyrrolo[1,2-b]pyridazin-7-yl)-4-((tetrahydro-2H-pyran-4-yl)amino)pyridin-3-yl)-1,3,4-thiadiazol-2-yl)cyclohexyl)cyclopropanecarboxamide]"
16.2 nM,,"CC(=O)NC[C@H]1C[C@H](c2nnc(-c3cnc(-c4ccc5cc(C#N)cnn45)cc3NC(C)C)s2)C1 [Example 290, N-(((1r,3r)-3-(5-(6-(3-cyanopyrrolo[1,2-b]pyridazin-7-yl)-4-(isopropylamino)pyridin-3-yl)-1,3,4-thiadiazol-2-yl)cyclobutyl)methyl)acetamide]"
334 nM,,"CC(=O)NC1CCC(F)(c2nnc(-c3cnc(-c4ccc5cc(C#N)cnn45)cc3NC3COC3)s2)CC1 (single isomer, unassigned) [Example 195, N-(4-(5-(6-(3-cyanopyrrolo[1,2-b]pyridazin-7-yl)-4-(oxetan-3-ylamino)pyridin-3-yl)-1,3,4-thiadiazol-2-yl)-4-fluorocyclohexy)acetamide]"
1.8 nM,,"CC(=O)N[C@]1(C)[C@@H]2CC[C@H]1CN(c1nnc(-c3cnc(-c4ccc5cc(C#N)cnn45)cc3N[C@H](C)C#N)s1)C2 [Example 157, N-((1R,5S,8S)-3-(5-(4-((R)-1-cyanoethypamino)-6-(3-cyanopyrrolo[1,2-b]pyridazin-7-yl)pyridin-3-yl)-1,3,4-thiadiazol-2-yl)-8-methyl-3-azabicyclo[3.2.1]octan-8-yl)acetamide]"
34.4 nM,,"CC(C)Nc1cc(-c2ccc3cc(C#N)cnn23)ncc1-c1nnc(N2CCC(O)(C(F)(F)F)CC2)s1 [Example 172, 7-(5-(5-(4-hydroxy-4-(trifluoromethyl)piperidin-l-yl)-1,3,4-thiadiazol-2-yl)-4-(isopropylamino)pyridin-2-yl)pyrrolo[1,2-b]pyridazine-3-carbonitrile]"
3.5 nM,,C[C@H](C#N)Nc1cc(-c2ccc3cc(C#N)cnn23)ncc1-c1nnc(N2CC3CC(C2)N3C(=O)C(C)(C)O)s1 [Example 115]
3.5 nM,,"CC(=O)N[C@@H]1[C@@H]2C[C@H]1CN(c1nnc(-c3cnc(-c4ccc5cc(C#N)cnn45)cc3N[C@H](C)C#N)s1)C2 [Example 174, N-((1R,5S,6S)-3-(5-(4-(((R)-1-cyanoethyl)amino)-6-(3-cyanopyrrolo[1,2-b]pyridazin-7-yl)pyridin-3-yl)-1,3,4-thiadiazol-2-yl)-3-azabicyclo[3.1.1]heptan-6-yl)acetamide]"
5.4 nM,,"CC(C)Nc1cc(-c2ccc3cc(C#N)cnn23)ncc1-c1nnc([C@H]2CC[C@H](NC(=O)C3CC3)CC2)s1 [Example 125, N-((1r,4r)-4-(5-(6-(3-cyanopyrrolo[1,2-b]pyridazin-7-yl)-4-(isopropylamino)pyridin-3-yl)-1,3,4-thiadiazol-2-yl)cyclohexyl)cyclopropanecarboxamide]"
21.4 nM,,"CC(=O)NC[C@H]1C[C@@H](c2nnc(-c3cnc(-c4ccc5cc(C#N)cnn45)cc3NC(C)C)s2)C1 [Example 289, N-(((1s,3s)-3-(5-(6-(3-cyanopyrrolo[1,2-b]pyridazin-7-yl)-4-(isopropylamino)pyridin-3-yl)-1,3,4-thiadiazol-2-yl)cyclobutyl)methyl)acetamide]"
2070 nM,,CC(C)Nc1cc(-c2ccc3cc(C#N)cnn23)ncc1-c1nnc(C(=O)N[C@H]2C[C@](C)(O)C2)s1 [Example 219]

# Source: US11046686B2, “Thiadiazole IRAK4 compounds” (Gilead Sciences, Inc., priority 2018, dated 2021)
